# Assays:
# Assay type in all cases: binding, Enterococcus faecium
# PBP5 = test: 1D 1H STD NMR of stem peptides with PBP5; settings: for STD % to SP1: normalised to highest SP1:PBP5 value; for STD amplification factor: protein:peptide 1:100, 2 s saturation, 308 K
# Description: (§1) Total saturation time for STD measurements was 2 s.
# (§2) Overlapped peaks were completely excluded from the analysis.
# PBP5:PenG complex = test: 1D 1H STD NMR of stem peptides with PBP5:PenG; settings: for STD amplification factor: PenG-saturated PBP5, 2 s saturation
# Description: as §1, §2
# PBP5:PenG complex (1:8) = test: NMR CSP titration of stem peptides into PenG-saturated PBP5; settings: PBP5:PenG 1:8, then SP titration
# Method: Data was processed using Topspin 4.1.4 (Bruker) and analyzed using NMRFAM-SPARKY 1.3 and Poky (build number 20240829)[20],[21]. The sequence-specific backbone assignment of PBP5 is publicly available at BMRBID 51690.
# SPs (SP1 to SP7) were titrated into 0.5 mM (^2H,^15N)-labeled and 0.1 mM (^2H,^15N)/^13C ILV labeled PBP5 at molar ratios of 0:1, 5:1, 10:1, 20:1, 40:1, 60:1, and 80:1 (stem peptide/SP:PBP5; molar ratios). 2D [^1H,^15N] TROSY or 2D [^1H,^13C] HMQC spectra were recorded for each titration point. SPs were solubilized in NMR buffer. Chemical shift perturbations (Δδ) between PBP5 and SP bound PBP5 spectra were calculated using Eq. 1,1 Δδppm=ΔδH^2+ΔδX/Y^2 where, X is ^15N or ^13C and Y is the constant i.e., 10 for ^15N and 4 for ^13C.
# Residues with significant CSPs were identified by calculating the standard deviation of all CSPs (σ), then excluding any CSPs larger than average+2σ, recalculating σ as a new corrected σ0, and then repetitively removing CSPs above 2σ0 until no additional CSPs can be removed. CSPs above ≥2σ2 was the statistical threshold for ^1H/^15N backbone CSP analysis and ≥2xσ1 for ^1H/^13C methyl ILV data for the interaction of SP1 with PBP5. The same threshold values were used for all other peptides to allow for direct comparison with the SP1/PBP5 interaction. […]
substance,measurement,setting,value
D-Lac-L-Ala-D-iGln-L-Lys(D-iAsn)-D-Ala-D-Ala [SP1],STD amplification factor as fraction of highest SP1:PBP5 value,"PBP5; 1H DA4α,LA1α",0.3688
same,STD % to SP1,"PBP5; 1H DA4α,LA1α",36.8831%
same,STD amplification factor,"PBP5; 1H DA4α,LA1α",9.925
same,STD amplification factor as fraction of highest SP1:PBP5 value,"PBP5; 1H DA4β, DLacβ",0.2569
same,STD % to SP1,"PBP5; 1H DA4β, DLacβ",25.6923%
same,STD amplification factor,"PBP5; 1H DA4β, DLacβ",6.913
same,STD amplification factor as fraction of highest SP1:PBP5 value,PBP5; 1H DA5α,0.6484
same,STD % to SP1,PBP5; 1H DA5α,64.837%
same,STD amplification factor,PBP5; 1H DA5α,17.4466
same,STD amplification factor as fraction of highest SP1:PBP5 value,PBP5; 1H DA5β,0.3281
same,STD % to SP1,PBP5; 1H DA5β,32.8081%
same,STD amplification factor,PBP5; 1H DA5β,8.828
same,STD amplification factor as fraction of highest SP1:PBP5 value,"PBP5; 1H DQ2α,Dlacα,iNα",0.2333
same,STD % to SP1,"PBP5; 1H DQ2α,Dlacα,iNα",23.3322%
same,STD amplification factor,"PBP5; 1H DQ2α,Dlacα,iNα",6.278
same,STD amplification factor as fraction of highest SP1:PBP5 value,PBP5; 1H DQ2β (first listed),0.816
same,STD % to SP1,PBP5; 1H DQ2β (first listed),81.5959%
same,STD amplification factor,PBP5; 1H DQ2β (first listed),21.9561
same,STD amplification factor as fraction of highest SP1:PBP5 value,PBP5; 1H DQ2β (second listed),0.8819
same,STD % to SP1,PBP5; 1H DQ2β (second listed),88.186%
same,STD amplification factor,PBP5; 1H DQ2β (second listed),23.7294
same,STD amplification factor as fraction of highest SP1:PBP5 value,PBP5; 1H DQ2γ,0.3832
same,STD % to SP1,PBP5; 1H DQ2γ,38.3191%
same,STD amplification factor,PBP5; 1H DQ2γ,10.3111
same,STD amplification factor as fraction of highest SP1:PBP5 value,PBP5; 1H K3α,0.5115
same,STD % to SP1,PBP5; 1H K3α,51.1543%
same,STD amplification factor,PBP5; 1H K3α,13.7648
same,STD amplification factor as fraction of highest SP1:PBP5 value,PBP5; 1H K3β,1
same,STD % to SP1,PBP5; 1H K3β,100%
same,STD amplification factor,PBP5; 1H K3β,26.9084
same,STD amplification factor as fraction of highest SP1:PBP5 value,PBP5; 1H K3δ,0.7475
same,STD % to SP1,PBP5; 1H K3δ,74.7509%
same,STD amplification factor,PBP5; 1H K3δ,20.1143
same,STD amplification factor as fraction of highest SP1:PBP5 value,PBP5; 1H K3ε,0.2891
same,STD % to SP1,PBP5; 1H K3ε,28.9129%
same,STD amplification factor,PBP5; 1H K3ε,7.78
same,STD amplification factor as fraction of highest SP1:PBP5 value,PBP5; 1H LA1β,0.276
same,STD % to SP1,PBP5; 1H LA1β,27.6026%
same,STD amplification factor,PBP5; 1H LA1β,7.427
same,STD amplification factor as fraction of highest SP1:PBP5 value,PBP5; 1H iNβ,0.3449
same,STD % to SP1,PBP5; 1H iNβ,34.4916%
same,STD amplification factor,PBP5; 1H iNβ,9.281
same,"STD amplification factor, ref to SP1 (fraction)","PBP5:PenG complex; 1H DA4α,LA1α",0.3134
same,"STD, ref to SP1 (percent)","PBP5:PenG complex; 1H DA4α,LA1α",31.3366
same,STD amplification factor,"PBP5:PenG complex; 1H DA4α,LA1α",8.432
same,"STD amplification factor, ref to SP1 (fraction)","PBP5:PenG complex; 1H DA4β, DLacβ",0.2401
same,"STD, ref to SP1 (percent)","PBP5:PenG complex; 1H DA4β, DLacβ",24.0089
same,STD amplification factor,"PBP5:PenG complex; 1H DA4β, DLacβ",6.4604
same,"STD amplification factor, ref to SP1 (fraction)",PBP5:PenG complex; 1H DA5α,0.5713
same,"STD, ref to SP1 (percent)",PBP5:PenG complex; 1H DA5α,57.1289
same,STD amplification factor,PBP5:PenG complex; 1H DA5α,15.3725
same,"STD amplification factor, ref to SP1 (fraction)",PBP5:PenG complex; 1H DA5β,0.2936
same,"STD, ref to SP1 (percent)",PBP5:PenG complex; 1H DA5β,29.3585
same,STD amplification factor,PBP5:PenG complex; 1H DA5β,7.9
same,"STD amplification factor, ref to SP1 (fraction)","PBP5:PenG complex; 1H DQ2α,Dlacα,iNα",0.2074
same,"STD, ref to SP1 (percent)","PBP5:PenG complex; 1H DQ2α,Dlacα,iNα",20.7354
same,STD amplification factor,"PBP5:PenG complex; 1H DQ2α,Dlacα,iNα",5.58
same,"STD amplification factor, ref to SP1 (fraction)",PBP5:PenG complex; 1H DQ2β (first listed),0.7176
same,"STD, ref to SP1 (percent)",PBP5:PenG complex; 1H DQ2β (first listed),71.7627
same,STD amplification factor,PBP5:PenG complex; 1H DQ2β (first listed),19.3102
same,"STD amplification factor, ref to SP1 (fraction)",PBP5:PenG complex; 1H DQ2β (second listed),0.813
same,"STD, ref to SP1 (percent)",PBP5:PenG complex; 1H DQ2β (second listed),81.3002
same,STD amplification factor,PBP5:PenG complex; 1H DQ2β (second listed),21.8766
same,"STD amplification factor, ref to SP1 (fraction)",PBP5:PenG complex; 1H DQ2γ,0.3426
same,"STD, ref to SP1 (percent)",PBP5:PenG complex; 1H DQ2γ,34.2606
same,STD amplification factor,PBP5:PenG complex; 1H DQ2γ,9.219
same,"STD amplification factor, ref to SP1 (fraction)",PBP5:PenG complex; 1H K3α,0.4115
same,"STD, ref to SP1 (percent)",PBP5:PenG complex; 1H K3α,41.1521
same,STD amplification factor,PBP5:PenG complex; 1H K3α,11.0734
same,"STD amplification factor, ref to SP1 (fraction)",PBP5:PenG complex; 1H K3β,0.9267
same,"STD, ref to SP1 (percent)",PBP5:PenG complex; 1H K3β,92.6679
same,STD amplification factor,PBP5:PenG complex; 1H K3β,24.9355
same,"STD amplification factor, ref to SP1 (fraction)",PBP5:PenG complex; 1H K3δ,0.5468
same,"STD, ref to SP1 (percent)",PBP5:PenG complex; 1H K3δ,54.6801
same,STD amplification factor,PBP5:PenG complex; 1H K3δ,14.7135
same,"STD amplification factor, ref to SP1 (fraction)",PBP5:PenG complex; 1H K3ε,0.1626
same,"STD, ref to SP1 (percent)",PBP5:PenG complex; 1H K3ε,16.2603
same,STD amplification factor,PBP5:PenG complex; 1H K3ε,4.3754
same,"STD amplification factor, ref to SP1 (fraction)",PBP5:PenG complex; 1H LA1β,0.2447
same,"STD, ref to SP1 (percent)",PBP5:PenG complex; 1H LA1β,24.4674
same,STD amplification factor,PBP5:PenG complex; 1H LA1β,6.584
same,"STD amplification factor, ref to SP1 (fraction)",PBP5:PenG complex; 1H iNβ,0.3143
same,"STD, ref to SP1 (percent)",PBP5:PenG complex; 1H iNβ,31.4336
same,STD amplification factor,PBP5:PenG complex; 1H iNβ,8.458
same,"CSPs in presence vs absence of penicillin, in words",PBP5:PenG complex (1:8),nearly identical

# Reference: paper PMC12717099, “Peptidoglycan recruitment by a penicillin binding protein” (Nature Communications, 2025)
